The results in this text go back to US9249356B2, “Liquid crystal dye mixture” (PEER+ B.V., priority 2011, dated 2016).

SMILES strings stand for the structures.

Holding throughout (assay type): physicochemical
A short description of series [1]: Solubility in fluorinated liquid crystal.
Series [2] can be described thus: Dichroic ratio in a liquid crystal host. From the text:
The purpose of these LC-dye mixtures is to be able to control the absorption or fluorescence emission (or both) of light by the dye. A measure of how well the absorption can be controlled is the dichroic ratio of the dye in the LC mixture. The dichroic ratio is the ratio in absorption for light coming in parallel to the absorption axis of the molecule (A∥) versus light traveling perpendicular to the absorption axis (A—|—):
DR=A∥/A—|—. Another way of expressing the same property is the order parameter (S), which is defined as […]

Series [3] in a line: Fluorescence / quantum yield. The text has this:
As a fourth requirement, the fluorescent dichroic dye should have high quantum efficiency. The quantum efficiency is the ratio of emitted photons to absorbed photons of the dye. The higher the quantum efficiency of the dye, the better the dye fluoresces. A good fluorescent dye has a quantum efficiency of at least 0.5, but preferably close to 1.

The nature of series [4]: Light fastness. Particulars: in words. The text has this: As a third requirement, a high light stability of the dye is desirable. A high light stability allows a long lifetime of the devices in high power conditions such as sunlight, lasers or interior lighting.
Series [5] can be described thus: Maximum solubility in nematic liquid crystal mixture MLC6653. Particulars: nematic LC (MLC6653 named). From the text:
As is apparent from the table above, these dyes suffer from a low order parameter. The Lumogen IR 765 and Lumogen IR788 have poor fluorescence and have no significant solubility (<<0.1 wt %) in commercial liquid crystal mixture MLC6653 from (Merck Darmstadt), a nematic liquid crystal mixture with positive dielectric anisotropy and a positive delta n.

The nature of series [6]: Peak absorption and order parameter of Lumogen dyes in nematic liquid crystal. From the text: Light fast rylene type dyes are commercially sold by BASF under the name Lumogen.

Regarding `CCCCCCC(CCCCCC)N1C(=O)c2ccc3c4ccc5c6c(ccc(c7ccc(c2c37)C1=O)c64)C(=O)N(c1ccc(-c2ccc3c4ccc6c7c(ccc(c8cccc2c83)c74)C(=O)N(c2c(C(C)C)cccc2C(C)C)C6=O)cc1)C5=O` [PBI-PMI, 2-(4-(2-(2,6-diisopropylphenyl)-1,3-dioxo-2,3-dihydro-1H-benzo[5,10]anthra[2,1,9-def]isoquinolin-8-yl)phenyl)-9-(tridecan-7-yl)anthra[2,1,9-def:6,5,10-d′e′f′]diisoquinoline-1,3,8,10(2H,9H)-tetraone], the solubility in series [1] was above 0.2 wt %. For the same molecule, the dichroic ratio in series [2] was determined as 14. Further, the quantum yield in series [3] (apolar solvents (cyclohexane)) stood at 0.77. For the same molecule, in series [4], the light fastness result is “comparable to the lightfastness of the single perylene bisimide”.
For `CC(C)c1cccc(C(C)C)c1N1C(=O)c2cc(Oc3ccccc3)c3c4c(Oc5ccccc5)cc5c6c(cc(Oc7ccccc7)c(c7c(Oc8ccccc8)cc(c2c37)C1=O)c64)C(=O)N(c1c(C(C)C)cccc1C(C)C)C5=O` [Lumogen F red 305], in series [5], the maximum solubility was 0.2 wt %. The Peak absorption in series [6] (in nematic LC) was determined as 577.5 nm. Also, in series [6] (nematic LC), the “order parameter in nematic LC” value is on record as −0.12.
In series [1], `CCCCCCCCCCCCC1(CCCCCCCCCCCC)c2cc(N3C(=O)c4ccc5c6ccc7c8c(ccc(c9ccc(c4c59)C3=O)c86)C(=O)N(C(CCCCCC)CCCCCC)C7=O)ccc2-c2ccc(N3C(=O)c4ccc5c6ccc7c8c(ccc(c9ccc(c4c59)C3=O)c86)C(=O)N(C(CCCCCC)CCCCCC)C7=O)cc21` [PFP] gave a solubility of 0.2 wt %. In addition, the dichroic ratio in series [2] worked out at 12. In addition, the fluorescence entry in series [3] (in words) is “good”. In addition, the light fastness entry in series [4] is “good”.
